Numbers after ± are expanded uncertainties.
Conditions: Crystal; visual observation

Normal melting temperature [°C] | Structure (SMILES)
63.77 ± 0.39 | Cc1cc(C)cc(O)c1 [3,5-dimethylphenol]
-23.47 ± 0.39 | CN1CCCC1=O [N-methylpyrrolidone]
41.70 ± 0.39 | Oc1ccccc1 [phenol]

— the NIST ThermoML archive (doi:10.1016/j.fluid.2005.03.027)
